We go through 4 sequences from patent publication US10556929B2, “Cytotoxic T lymphocyte inducing immunogens for prevention treatment and diagnosis of dengue virus infection” (Emergex Vaccines Holdings Limited, priority 2011, dated 2020).

What all share (format): cell-based, human
The test system of test [1] is HepG2 cells infected with DV1-4 Thai isolates. Put plainly: IFN-γ ELISpot, CTL vs HepG2 cells infected with DV1-4 Thai isolates. To be noted: HepG2 infected with DV1-4 Thai isolates, FIG. 4C-F. How it is done: (§1) Dengue virus serotype 2 (DV2) (strain-16681), as well as DV type 3 (DV3) (strain-16562), were propagated in Vero cells and collected at 4 days post infection (dpi). Titer was determined using a plaque assay in Vero cells. Thai isolates of all four DV serotypes were propagated. All infections were carried out at five MOI for lhr, after which, virus was removed and cells were incubated for additional 48-72 hrs.
(§2) Heparinized blood from healthy HLA-A2+ donors was purchased from Research Blood Components, LLC (Brighton, Mass.). Peripheral blood mononuclear cells (PBMC) were purified using differential centrifugation following standard methods. PBMC were used to generate peptide specific CTL as described previously (James S. Testa, et al. J Infect Dis 205(4): 647-655. (2012)).
(§3) Antigen stimulated interferon-γ (IFN-γ) release as a measure of CTL activation was assayed using an ELISPOT assay kit (BD-Pharmingen, San Jose, Calif.) according to the manufacturer's instructions. Results are presented as the number of interferon-γ producing cells per 1E6 PBMCs. Each assay was performed with PBMC from at least three different healthy HLA-A2+ donors. Error bars represent SEM of experimental replicates.
(§4) We tested CTLs generated against the 4 epitopes using targets infected with all four DV serotypes. We infected HepG2 cells (FIG. 4A) or JY cells (FIG. 4B) with DV1-4 Thai isolates and verified protein expression. […] In addition to HepG2 cells, we also tested professional APC JY cells, as targets.

Test [2] relates to JY cells infected with DV1-4 Thai isolates. Put plainly: IFN-γ ELISpot, CTL vs JY cells infected with DV1-4 Thai isolates. To be noted: JY infected with DV1-4 Thai isolates, FIG. 4G-J. How it is done:
as §1, §2, §3, §4

For test [3], the system named is JY and HepG2 cells infected with DV2 and DV3 virus. Nature of the test: IFN-γ ELISpot, CTL vs DV2/DV3-infected JY and HepG2 cells. To be noted: FIG. 3E-F. How it is done:
as §1, §2, §3
In order to characterize the functionality of the identified DV epitopes, we generated cytotoxic T cells from HLA-A2+ healthy donors using synthetic peptides corresponding to the identified epitopes. […]

For test [4], the system named is T2 cells loaded with the corresponding synthetic peptide. Nature of the test: IFN-γ ELISpot, CTL vs peptide-pulsed T2 cells. The note with it: CTL from HLA-A2+ healthy donor PBMC generated with synthetic peptide, overnight ELISpot, FIG. 3A-D. How it is done:
as §2, §3
In order to characterize the functionality of the identified DV epitopes, we generated cytotoxic T cells from HLA-A2+ healthy donors using synthetic peptides corresponding to the identified epitopes. The cultures were tested in overnight ELISpot assays to measure IFNγ release from activated CTLs. […] Next, to confirm CTL activation against DV-infected targets, JY and HepG2 cells were infected with both DV2 and DV3 virus and used as targets in CTL ELISpot assays. […] In addition, K562 cells, a known NK cell target, were used as targets to measure non-specific IFNγ secretion.

For “VTLLCLIPTV (listed as Homo sapiens) [P2-VTL]”, the “activation of epitope-specific CTL against infected HepG2 targets” value (“activation of epitope-specific CTL” for short) in test [1] is on record as “activated against all four serotypes, although not to the same degree”. Further, in test [2], the “DV serotypes of infected targets recognized by peptide-specific CTL” value is given as “recognized only DV2-infected targets” and the “activation of peptide-specific CTL by infected JY targets” value (“activation of peptide-specific CTL” for short) was “most infected targets activate peptide-specific CTL”. In addition, the “CTL activation (IFNγ secretion) against DV-infected targets” value in test [3] is listed as “all DV-infected cells activated CTL to secrete IFNγ”. Also, the “recognition of peptide-loaded targets by peptide-specific CTL (IFNγ release)” value (“recognition of peptide-loaded targets” for short) in test [4] is “recognize T2 cells loaded with the corresponding synthetic peptide”.
In the case of “KLAEAIFKL (listed as Homo sapiens) [P1-KLA]”, the “activation of epitope-specific CTL” value in test [1] is “activated against all four serotypes, although not to the same degree”. In addition, in test [2], the “DV serotypes of infected targets recognized by peptide-specific CTL” value is “recognized only DV2-infected targets” and the “activation of peptide-specific CTL” value is listed as “most infected targets activate peptide-specific CTL”. In addition, the “recognition of peptide-loaded targets” value in test [4] is given as “recognize T2 cells loaded with the corresponding synthetic peptide”.
For the sequence “TITEEIAVQ (listed as Homo sapiens) [P3-TIT]”, in test [1], the “activation of epitope-specific CTL” value is reported as “activated against all four serotypes, although not to the same degree”. Further, in test [2], the “activation of peptide-specific CTL” value is “most infected targets activate peptide-specific CTL”. Also, the “CTL activation (IFNγ secretion) against DV-infected targets” value in test [3] is “all DV-infected cells activated CTL to secrete IFNγ”. Further, the “recognition of peptide-loaded targets” value in test [4] is given as “recognize T2 cells loaded with the corresponding synthetic peptide”.
As to “NIQTAINQV (listed as Homo sapiens) [P4-NIQ]”, the “activation of epitope-specific CTL” value in test [1] was “activated against all four serotypes, although not to the same degree”. For the same sequence, in test [2], the “activation of peptide-specific CTL” value was “most infected targets activate peptide-specific CTL”. In test [4], the “recognition of peptide-loaded targets” value is on record as “recognize T2 cells loaded with the corresponding synthetic peptide”.
